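Results reflect a 48-hour exposure of cells in 96-well plates to compound at five concentrations. GI50: concentration for 50% inhibition of growth.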 Activity calls are given as the source filed them. No stated cut-off is given here; in the data, active = GI50 up to about 1.1 µM and inactive = higher.
Columns and labels:
Experiment in all cases: NCI tumour cell line growth inhibition, 48 h
ACHN = system: ACHN
BT-549 = system: BT-549
CCRF-CEM = system: CCRF-CEM
EKVX = system: EKVX
HOP-92 = system: HOP-92
HT-29 = system: HT-29
Hs-578T = system: Hs-578T
K562 = system: K562
MDA-MB-435 = system: MDA-MB-435
MDA-N = system: MDA-N
NCI/ADR-RES = system: NCI/ADR-RES
OVCAR-5 = system: OVCAR-5
RXF 393 = system: RXF 393
SK-MEL-5 = system: SK-MEL-5
SN12C = system: SN12C
SW-620 = system: SW-620
TK-10 = system: TK-10
U-251 = system: U-251
UACC-257 = system: UACC-257
UACC-62 = system: UACC-62

SMILES | GI50 (ACHN) | GI50 (BT-549) | GI50 (CCRF-CEM) | GI50 (EKVX) | GI50 (HOP-92) | GI50 (HT-29) | GI50 (Hs-578T) | GI50 (K562) | GI50 (MDA-MB-435) | GI50 (MDA-N) | GI50 (NCI/ADR-RES) | GI50 (OVCAR-5) | GI50 (RXF 393) | GI50 (SK-MEL-5) | GI50 (SN12C) | GI50 (SW-620) | GI50 (TK-10) | GI50 (U-251) | GI50 (UACC-257) | GI50 (UACC-62)
COC(=O)/C=C\n1c(C)cc(=O)[nH]c1=O | > 100 µM (inactive) | > 100 µM (inactive) | > 100 µM (inactive) | > 100 µM (inactive) | > 100 µM (inactive) | > 100 µM (inactive) | > 100 µM (inactive) | > 100 µM (inactive) | > 100 µM (inactive) | > 100 µM (inactive) | > 100 µM (inactive) | > 100 µM (inactive) | > 100 µM (inactive) | > 100 µM (inactive) | > 100 µM (inactive) | > 100 µM (inactive) | > 100 µM (inactive) | > 100 µM (inactive) | > 100 µM (inactive) | > 100 µM (inactive)
O=C(NCCCN(CCCCN(CCCNC(=O)C(F)(F)F)Cc1ccccc1)Cc1ccccc1)C(F)(F)F | 16.5 µM (inactive) | 14.9 µM (inactive) | 16.2 µM (inactive) | 12.6 µM (inactive) | 10.5 µM (inactive) | 6.49 µM (inactive) | 16.6 µM (inactive) | 13.7 µM (inactive) | 18.3 µM (inactive) | 15.7 µM (inactive) | 14.7 µM (inactive) | 19.9 µM (inactive) | 14.8 µM (inactive) | 3.39 µM (inactive) | 15.4 µM (inactive) | 16.5 µM (inactive) | 23.3 µM (inactive) | > 10 µM (inactive) | 5.07 µM (inactive) | 16.9 µM (inactive)
CC1=NN2C=Nc3c(c(-c4ccc(Cl)cc4)cn3-c3ccc(C)cc3)C2N1 (stereo not given) | > 100 µM (inactive) | > 100 µM (inactive) | > 100 µM (inactive) | > 100 µM (inactive) | 17.1 µM (inactive) | 64.4 µM (inactive) | 11.3 µM (inactive) | > 100 µM (inactive) | > 100 µM (inactive) | > 100 µM (inactive) | 55.8 µM (inactive) | > 100 µM (inactive) | 42.5 µM (inactive) | 87.9 µM (inactive) | > 100 µM (inactive) | > 100 µM (inactive) | 42.8 µM (inactive) | 76.2 µM (inactive) | > 100 µM (inactive) | 61 µM (inactive)
COC1(C)CCC(OS(C)(=O)=O)CO1 (stereo not given) | > 100 µM (inactive) | > 100 µM (inactive) | > 100 µM (inactive) | > 100 µM (inactive) | > 100 µM (inactive) | > 100 µM (inactive) | > 100 µM (inactive) | > 100 µM (inactive) | > 100 µM (inactive) | > 100 µM (inactive) | > 100 µM (inactive) | > 100 µM (inactive) | > 100 µM (inactive) | > 100 µM (inactive) | > 100 µM (inactive) | > 100 µM (inactive) | > 100 µM (inactive) | > 100 µM (inactive) | > 100 µM (inactive) | > 100 µM (inactive)
C[C@@H]1CCC2[C@@H](C)[C@@H](O[C@H]3O[C@@H]4O[C@@]5(C)CCC6[C@H](C)CCC([C@H]3C)[C@]64OO5)O[C@@H]3O[C@@]4(C)CCC1[C@@]23OO4 (stereo not given in full) | 3.27 µM (inactive) | 1.23 µM (inactive) | 7.46 µM (inactive) | 2.07 µM (inactive) | 3.63 µM (inactive) | 1.31 µM (inactive) | 7.05 µM (inactive) | 1.04 µM (active) | 6.97 µM (inactive) | 2.65 µM (inactive) | 1.45 µM (inactive) | > 25 µM (inactive) | > 12.6 µM (inactive) | 3.44 µM (inactive) | 16.7 µM (inactive) | 1.16 µM (inactive) | > 20 µM (inactive) | > 25 µM (inactive) | > 25 µM (inactive) | 1.99 µM (inactive)
COC(=N)C1(C#N)NC(c2ccsc2)C(C#N)(C#N)NC1c1ccsc1 (stereo not given) | > 100 µM (inactive) | > 100 µM (inactive) | > 100 µM (inactive) | > 100 µM (inactive) | 60.7 µM (inactive) | > 100 µM (inactive) | > 100 µM (inactive) | > 100 µM (inactive) | > 100 µM (inactive) | > 100 µM (inactive) | > 100 µM (inactive) | > 100 µM (inactive) | > 100 µM (inactive) | > 100 µM (inactive) | > 100 µM (inactive) | > 100 µM (inactive) | > 100 µM (inactive) | > 100 µM (inactive) | > 100 µM (inactive) | > 100 µM (inactive)
Nc1ccc(Oc2ccc(C34CC5CC6C3CC3CC4C(C5)C6(c4ccc(Oc5ccc(N)cc5)cc4)C3)cc2)cc1 | 3.17 µM (inactive) | 34.4 µM (inactive) | 15.4 µM (inactive) | 11.5 µM (inactive) | 2.9 µM (inactive) | 10.2 µM (inactive) | 25.4 µM (inactive) | 10.2 µM (inactive) | 0.376 µM (active) | 0.334 µM (active) | > 74.6 µM (inactive) | > 100 µM (inactive) | 18.6 µM (inactive) | 0.561 µM (active) | 25.1 µM (inactive) | 19.7 µM (inactive) | 21.6 µM (inactive) | 2.9 µM (inactive) | 0.329 µM (active) | 2.74 µM (inactive)
COc1cc2c(cc1OC)[C@H]1C(=O)c3cc4c(cc3[C@H]1N(C)C2=O)OCO4 | 0.682 µM (active) | > 49.4 µM (inactive) | 0.366 µM (active) | > 100 µM (inactive) | 22.2 µM (inactive) | 5.27 µM (inactive) | > 94.6 µM (inactive) | 0.869 µM (active) | 16.6 µM (inactive) | 12.1 µM (inactive) | 4.81 µM (inactive) | > 100 µM (inactive) | 21.8 µM (inactive) | 1.96 µM (inactive) | 2.83 µM (inactive) | 2.44 µM (inactive) | > 100 µM (inactive) | 1.03 µM (active) | 6.32 µM (inactive) | 0.879 µM (active)
OC(Cc1cccc2ccccc12)CN1CCC(c2ccccc2)CC1 (stereo not given) | 17.1 µM (inactive) | 16.8 µM (inactive) | 18.5 µM (inactive) | 14 µM (inactive) | 12.4 µM (inactive) | 11.2 µM (inactive) | 15.8 µM (inactive) | 12.5 µM (inactive) | 15.1 µM (inactive) | 14.3 µM (inactive) | 14.9 µM (inactive) | 13.7 µM (inactive) | 10.2 µM (inactive) | 12.1 µM (inactive) | 16.5 µM (inactive) | 15 µM (inactive) | 12.8 µM (inactive) | 13.4 µM (inactive) | 3.72 µM (inactive) | 15.3 µM (inactive)
CSc1ccn(C2CC(F)C(CO)O2)c(=O)n1 (stereo not given) | > 100 µM (inactive) | > 100 µM (inactive) | > 100 µM (inactive) | > 100 µM (inactive) | > 100 µM (inactive) | > 100 µM (inactive) | > 100 µM (inactive) | > 100 µM (inactive) | > 100 µM (inactive) | > 100 µM (inactive) | > 100 µM (inactive) | > 100 µM (inactive) | > 100 µM (inactive) | > 100 µM (inactive) | > 100 µM (inactive) | > 100 µM (inactive) | > 100 µM (inactive) | > 100 µM (inactive) | > 100 µM (inactive) | > 100 µM (inactive)
O=C1c2ccccc2CC12Cc1ccc3c(c1C2)CCC3 (stereo not given) | 22.6 µM (inactive) | 35.8 µM (inactive) | 16.8 µM (inactive) | 16.9 µM (inactive) | 14 µM (inactive) | 13.3 µM (inactive) | 21 µM (inactive) | 22.3 µM (inactive) | 16.1 µM (inactive) | 19.8 µM (inactive) | 4.24 µM (inactive) | 17.2 µM (inactive) | 16.4 µM (inactive) | 15.5 µM (inactive) | 26.7 µM (inactive) | 30.5 µM (inactive) | 2.36 µM (inactive) | 16.9 µM (inactive) | 11.7 µM (inactive) | 20.3 µM (inactive)
CN(C)c1nc(N(C)C)nc(N(C)C)n1 [ALTRETAMINE] | > 150 µM (inactive) | > 150 µM (inactive) | > 147 µM (inactive) | > 150 µM (inactive) | 147 µM (inactive) | > 150 µM (inactive) | > 150 µM (inactive) | > 148 µM (inactive) | > 150 µM (inactive) | > 150 µM (inactive) | > 114 µM (inactive) | > 147 µM (inactive) | > 150 µM (inactive) | 136 µM (inactive) | > 150 µM (inactive) | > 150 µM (inactive) | > 150 µM (inactive) | > 150 µM (inactive) | > 150 µM (inactive) | > 150 µM (inactive)
